According to patent US20140243302A1, “BRIDGED BICYCLIC COMPOUNDS FOR THE TREATMENT OF BACTERIAL INFECTIONS” (priority 2011, published 2014):
In brackets after ≈: the same amount, converted by molar mass.

Tested on: Staphylococcus aureus Smith
Assay: MIC assay, modified agar dilution (CLSI), S. aureus Smith
Format: cell-based
Conditions: Staphylococcus aureus, agar dilution, 35° C., 16-20 hr; lowest concentration that completely inhibited growth; read-out: S_aureus_Smith_WT_MIC
Method in brief: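 Strains were spotted at about 1×10^4 CFU onto compound-containing Mueller Hinton agar (two-fold series, 128-0.001 μg/mL), horse blood 5% added for pneumococcus and enterococcus. MIC read after 16-20 hr at 35 °C, following a modified CLSI agar dilution method.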

Row | Compound | MIC
1 | COc1cnc2ncc(=O)n(CCC34CCC(NCc5ccc6c(n5)NC(=O)CO6)(CC3)CO4)c2c1 [Example 121, 6-(((1-(2-(7-Methoxy-2-oxopyrido[2,3-b]pyrazin-1(2H)-yl)ethyl)-2-oxabicyclo[2.2.2]octan-4-yl)amino)methyl)-2H-pyrido[3,2-b][1,4]oxazin-3(4H)-one] | 0.016 µg/mL (≈ 0.0325 µM)
2 | COc1ccc2ncc(=O)n(CCC34CCC(NCc5cc6c(cn5)OCCO6)(CC3)CO4)c2n1 [Example 122, 4-(2-(4-((2,3-Dihydro-[1,4]dioxino[2,3-c]pyridin-7-yl)methylamino)-2-oxabicyclo[2.2.2]octan-1-yl)ethyl)-6-methoxypyrido[3,2-b]pyrazin-3(4H)-one] | 0.063 µg/mL (≈ 0.131 µM)
3 | COc1ccc2ncc(=O)n(CCC34CCC(NCc5cc6ccccc6n(C)c5=O)(CC3)CO4)c2n1 [Example 123, 6-Methoxy-4-(2-(4-((1-methyl-2-oxo-1,2-dihydroquinolin-3-yl)methylamino)-2-oxabicyclo[2.2.2]octan-1-yl)ethyl)pyrido[3,2-b]pyrazin-3(4H)-one] | 1 µg/mL (≈ 1.99 µM)
4 | COc1ccc2ncc(O)c(CCC34CCC(NCc5ccc6c(n5)NC(=O)CO6)(CC3)CO4)c2n1 [Example 124, 6-(((1-(2-(3-Hydroxy-6-methoxy-1,5-naphthyridin-4-yl)ethyl)-2-oxabicyclo[2.2.2]octan-4-yl)amino)methyl)-2H-pyrido[3,2-b][1,4]oxazin-3(4H)-one] | 0.031 µg/mL (≈ 0.0631 µM)
5 | COc1ccc2ncc(F)c(CCC34CCC(NCc5ccc6c(n5)NC(=O)CO6)(CC3)CO4)c2c1.Cl [Example 125, 6-((1-(2-(3-Fluoro-6-methoxyquinolin-4-yl)ethyl)-2-oxabicyclo[2.2.2]octan-4-ylamino)methyl)-2H-pyrido[3,2-b][1,4]oxazin-3(4H)-one Hydrochloride] | 0.016 µg/mL
6 | Cc1ccc2ncc(=O)n(CCC34CCC(NCc5ccc6c(n5)NC(=O)CO6)(CC3)CO4)c2n1 [Example 126, 6-(((1-(2-(6-Methyl-3-oxopyrido[2,3-b]pyrazin-4(3H)-yl)ethyl)-2-oxabicyclo[2.2.2]octan-4-yl)amino)methyl)-2H-pyrido[3,2-b][1,4]oxazin-3(4H)-one] | 0.25 µg/mL (≈ 0.525 µM)
7 | COC(=O)c1cnc2ccc(=O)n(CCC34CCC(NCc5ccc6c(n5)NC(=O)CO6)(CC3)CO4)c2c1.Cl [Example 127, Methyl 6-Oxo-5-(2-(4-((3-oxo-3,4-dihydro-2H-pyrido[3,2-b][1,4]oxazin-6-yl)methylamino)-2-oxabicyclo[2.2.2]octan-1-yl)ethyl)-5,6-dihydro-1,5-naphthyridine-3-carboxylate Hydrochloride] | 0.25 µg/mL
8 | N#Cc1cnc2ccc(=O)n(CCC34CCC(NCc5ccc6c(n5)NC(=O)CO6)(CC3)CO4)c2c1 [Example 128, 6-Oxo-5-(2-(4-((3-oxo-3,4-dihydro-2H-pyrido[3,2-b][1,4]oxazin-6-yl)methylamino)-2-oxabicyclo[2.2.2]octan-1-yl)ethyl)-5,6-dihydro-1,5-naphthyridine-3-carbonitrile] | 0.063 µg/mL (≈ 0.129 µM)
9 | O=C1COc2ccc(CNC34CCC(CCn5c(=O)ccc6ncc(Cl)cc65)(CC3)OC4)nc2N1 [Example 129, 6-((1-(2-(7-Chloro-2-oxo-1,5-naphthyridin-1(2H)-yl)ethyl)-2-oxabicyclo[2.2.2]octan-4-ylamino)methyl)-2H-pyrido[3,2-b][1,4]oxazin-3(4H)-one] | 0.063 µg/mL (≈ 0.127 µM)
10 | O=C1COc2ccc(CNC34CCC(CCn5c(=O)ccc6ncc(Br)cc65)(CC3)OC4)nc2N1 [Example 130, 6-((1-(2-(7-Bromo-2-oxo-1,5-naphthyridin-1(2H)-yl)ethyl)-2-oxabicyclo[2.2.2]octan-4-ylamino)methyl)-2H-pyrido[3,2-b][1,4]oxazin-3(4H)-one] | 0.063 µg/mL (≈ 0.117 µM)
11 | COc1ccc2ccc(=O)n(CCC34CCC(NCc5ccc6c(n5)NC(=O)CO6)(CC3)CO4)c2n1.Cl [Example 131, 6-((1-(2-(7-Methoxy-2-oxo-1,8-naphthyridin-1(2H)-yl)ethyl)-2-oxabicyclo[2.2.2]octan-4-ylamino)methyl)-2H-pyrido[3,2-b][1,4]oxazin-3(4H)-one Hydrochloride] | 0.016 µg/mL
12 | COc1ccc2ncc(F)c(NCC34CCC(NCc5ccc6c(n5)NC(=O)CO6)(CC3)CO4)c2n1 [Example 136, 6-({1-[(3-Fluoro-6-methoxy-[1,5]naphthyridin-4-ylamino)-methyl]-2-oxa-bicyclo[2.2.2]oct-4-ylamino}-methyl)-4H-pyrido[3,2-b][1,4]oxazin-3-one] | 0.25 µg/mL (≈ 0.506 µM)
13 | CCOc1cc(C)c2ncc(F)c(CCC34CCC(NCc5ccc6c(n5)NC(=O)CO6)(CC3)CO4)c2n1 [Example 137, 6-[({1-[2-(6-Ethoxy-3-fluoro-8-methyl-1,5-naphthyridin-4-yl)ethyl]-2-oxabicyclo[2.2.2]oct-4-yl}amino)methyl]-2H-pyrido[3,2-b][1,4]oxazin-3(4H)-one] | 0.063 µg/mL (≈ 0.121 µM)
14 | COc1ccc2ncc(F)c(CC(O)(C(F)(F)F)C34CCC(NCc5ccc6c(n5)NC(=O)CO6)(CC3)CO4)c2n1 (centres unmarked) [Example 138, 6-[({1-[1,1,1-Trifluoro-3-(3-fluoro-6-methoxy-1,5-naphthyridin-4-yl)-2-hydroxypropan-2-yl]-2-oxabicyclo[2.2.2]oct-4-yl}amino)methyl]-2H-pyrido[3,2-b][1,4]oxazin-3(4H)-one] | 0.5 µg/mL (≈ 0.866 µM)
15 | COc1cc(C)c2ncc(F)c(CCC34CCC(NCc5ccc6c(n5)NC(=O)CO6)(CC3)CO4)c2c1 [Example 139, 6-((1-(2-(3-Fluoro-6-methoxy-8-methylquinolin-4-yl)ethyl)-2-oxabicyclo[2.2.2]octan-4-ylamino)methyl)-2H-pyrido[3,2-b][1,4]oxazin-3(4H)-one] | 0.063 µg/mL (≈ 0.124 µM)
16 | COc1cc(C)c2ncc(F)c(CC(O)C34CCC(NCc5ccc6c(n5)NC(=O)CO6)(CC3)CO4)c2c1 (centres unmarked) [Example 140, 6-[({1-[2-(3-Fluoro-6-methoxy-8-methylquinolin-4-yl)-1-hydroxyethyl]-2-oxabicyclo[2.2.2]oct-4-yl}amino)methyl]-2H-pyrido[3,2-b][1,4]oxazin-3(4H)-one] | 0.063 µg/mL (≈ 0.121 µM)
17 | COc1cc2c(CCC34CCC(NCc5ccc6c(n5)NC(=O)CO6)(CC3)CO4)c(F)cnc2cc1F [Example 141, 6-[({1-[2-(3,7-Difluoro-6-methoxyquinolin-4-yl)ethyl]-2-oxabicyclo[2.2.2]oct-4-yl}amino)methyl]-2H-pyrido[3,2-b][1,4]oxazin-3(4H)-one] | 0.063 µg/mL (≈ 0.123 µM)
18 | COc1ccc2ncc(F)c(CCC34CCC(NCc5ncc6c(n5)NC(=O)CO6)(CC3)CO4)c2n1 [Example 142, 2-((1-(2-(3-Fluoro-6-methoxy-1,5-naphthyridin-4-yl)ethyl)-2-oxabicyclo[2.2.2]octan-4-ylamino)methyl)-6H-pyrimido[5,4-b][1,4]oxazin-7(8H)-one] | 0.031 µg/mL (≈ 0.0627 µM)
19 | COc1ccc2ncc(F)c(CC(O)C34CCC(NCc5ncc6c(n5)NC(=O)CO6)(CC3)CO4)c2n1 (centres unmarked) [Example 143, 2-((1-(2-(3-Fluoro-6-methoxy-1,5-naphthyridin-4-yl)-1-hydroxyethyl)-2-oxabicyclo[2.2.2]octan-4-ylamino)methyl)-6H-pyrimido[5,4-b][1,4]oxazin-7(8H)-one] | 0.031 µg/mL (≈ 0.0607 µM)
20 | COc1ccc2ncc(F)c(CCC34CCC(NCc5ncc6c(n5)OCCO6)(CC3)CO4)c2n1 [Example 144, N-((6,7-Dihydro-[1,4]dioxino[2,3-d]pyrimidin-2-yl)methyl)-1-(2-(3-fluoro-6-methoxy-1,5-naphthyridin-4-yl)ethyl)-2-oxabicyclo[2.2.2]octan-4-amine] | 0.125 µg/mL (≈ 0.26 µM)
